Assay results reported in BindingDB's records for doi:10.1021/acs.jmedchem.6b01879 (China Pharmaceutical University, 2017).

Experiment: Inhibition of ABCB1 in human K562/A02 cells assessed as potentiation of adriamycin-induced cytotoxicity by measuring compound concentration required for reduction of ADR IC50 after 48 hrs by MTT assay

SMILES	EC50 [nM]
O=C(Nc1ccc(N2CCOCC2)cc1)c1cccnc1NCc1ccncc1	329
COc1cc2c(cc1OC)CN(CCc1ccc(NC(=O)c3cccnc3NCc3ccncc3)cc1)CC2	120
